19 molecules from patent US8263584B2, “Imidazopyridines” (Hoffmann-La Roche Inc., priority 2009, dated 2012) can be followed below.

T1 sequence (Q9Y233 715-1055): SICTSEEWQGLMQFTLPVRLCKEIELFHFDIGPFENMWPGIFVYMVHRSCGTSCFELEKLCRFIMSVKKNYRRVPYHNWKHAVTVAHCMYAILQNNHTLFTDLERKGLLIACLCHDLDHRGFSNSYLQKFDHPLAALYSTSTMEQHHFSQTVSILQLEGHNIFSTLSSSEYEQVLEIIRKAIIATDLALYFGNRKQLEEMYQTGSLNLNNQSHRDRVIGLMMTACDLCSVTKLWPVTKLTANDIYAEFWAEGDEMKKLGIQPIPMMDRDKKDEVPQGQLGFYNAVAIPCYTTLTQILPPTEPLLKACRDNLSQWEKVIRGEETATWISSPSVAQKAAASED

The experiment concerns the target T1, PDE10A2 (Homo sapiens, UniProt Q9Y233).
T1 construct: residues serine 449 to aspartate 789; His6 (H6) with Gateway linker and thrombin cleavage site (N, cleaved yes); made in house; host or cells: E. coli BL21(DE3) pLysS
Nature of the experiment: PDE10A2 inhibition, Scintillation Proximity Assay (SPA). Type of experiment: biochemical. The settings on record: catalytic domain of human PDE10A2 (S449-D789), 0.25 nM enzyme, 50 nM cGMP and 50 nM [3H]-cGMP, 30 minutes at room temperature. The method, then:
The following tests were carried out in order to determine the activity of the compounds of the present invention. PDE10 activity of the compounds of the present invention is determined using a Scintillation Proximity Assay (SPA)-based method similar to the one previously described (Fawcett, L. et al., Proc Natl Acad Sci USA (2000) 97(7):3702-3707). PDE10A1 and PDE10A2 are two splice variants of PDE10A. There are these 2 splice variants known, which differ in the N-terminal part of the protein. The catalytic domains of PDE10A1 and PDE10A2 are identical. The assay for PDE10A2 described below is therefore also representative for PDE10A1 and also for PDE10A in general. The PDE10A2 assay was performed in a two step procedure in 96-well micro titer plates. […] A range of concentrations of the potential inhibitor was used to generate data for calculating the concentration of inhibitor resulting in 50% of the effect (e.g. IC50, the concentration of the competitor inhibiting PDE10A2 activity 50%). Non-specific activity was tested without the enzyme. The reaction was initiated by addition of the substrate solution (cGMP and [^3H]-cGMP) and allowed to progress for 30 minutes at room temperature. The reaction was terminated by transferring 50 μl of the reaction mixture into an OptiPlate (Perkin Elmer) containing 25 μl of YSi-SPA scintillation beads (GE Healthcare) in 18 mM zinc sulphate solution (stop reagent). After 1 h under shaking, the plate was centrifuged one minute at 1000 rpm to allow beads to settle. Afterwards, radioactive counts were measured on a Perkin Elmer TopCount Scintillation plate reader. The catalytic domain of human PDE10[…], was amplified by PCR using cDNA (Origene) and the oligonucleotides 5'-[…]00001:character} […] no. 1) (with AttB1 recombination site in bold and thrombin protease cleavage site in […] no. 2) (with AttB2 recombination site in bold) which conferred Gateway recombination sites. The PCR product was used in a BP recombination reaction with pDONR221 to generate […]([…]-[…]) which was DNA sequence verified and then used in an LR recombination reaction with a Gateway modified version of pET11a. […] About 30% of the protein was in the soluble fraction of the cell homogenate. The protein was purified using sequential chromatography on Ni-NTA and […]. After thrombin digest at room temperature a […]/HiTrap Benzamindin chromatography removed impurities, uncleaved protein and thrombin. Final purification of PDE10A2([…]-[…]) was performed on a Superdex 75 size exclusion chromatography equilibrated with 25 mM HEPES pH 8.4, 0.15 M NaCl. The yield of pure protein was 2 mg/liter of culture volume is relatively low. The purity of the protein was >95%, monomeric and monodisperse as shown by SDS-PAGE, HPLC and analytical ultracentrifugation.
On the technique in general: In a scintillation proximity assay essentially only radioactivity close to the scintillant gives light.
With `CN1CCN(C(=O)c2cnn(C)c2C(=O)Nc2ccn3cc(-c4ccccc4)nc3c2)CC1` [Example 52, 2-Methyl-4-(4-methyl-piperazine-1-carbonyl)-2H-pyrazole-3-carboxylic acid (2-phenyl-imidazo[1,2-a]pyridin-7-yl)-amide], the IC50 (in general, the concentration that inhibits the measured activity by half) was 4.7 nM. Under `Cn1ncc(C(=O)N2CCOCC2CO)c1C(=O)Nc1ccn2cc(-c3ccccc3)nc2c1` (stereo not shown) [Example 53, 4-(3-Hydroxymethyl-morpholine-4-carbonyl)-2-methyl-2H-pyrazole-3-carboxylic acid (2-phenyl-imidazo[1,2-a]pyridin-7-yl)-amide] stands 3.3 nM; under `Cn1ncc(C(=O)Nc2ccncc2)c1C(=O)Nc1ccn2cc(-c3ccccc3)nc2c1` [Example 55, 2-Methyl-2H-pyrazole-3,4-dicarboxylic acid 3-[(2-phenyl-imidazo[1,2-a]pyridin-7-yl)-amide]-4-pyridin-4-ylamide], 4.3 nM; under `CN(C)C1CCN(C(=O)c2cnn(C)c2C(=O)Nc2ccn3cc(-c4ccccc4)nc3c2)C1` (stereo not shown) [Example 59, 4-(3-Dimethylamino-pyrrolidine-1-carbonyl)-2-methyl-2H-pyrazole-3-carboxylic acid (2-phenyl-imidazo[1,2-a]pyridin-7-yl)-amide], 0.6 nM. Consider `CCn1ncc(C(=O)N2CCC2)c1C(=O)Nc1ccn2cc(-c3ccccc3)nc2c1` [Example 62, 4-(Azetidine-1-carbonyl)-2-ethyl-2H-pyrazole-3-carboxylic acid (2-phenyl-imidazo[1,2-a]pyridin-7-yl)-amide], for which the IC50 came to 12.6 nM.

Turning to `CNC(=O)c1cn[nH]c1C(=O)Nc1ccn2cc(-c3ccccc3)nc2c1` [Example 65, 2H-Pyrazole-3,4-dicarboxylic acid 4-methylamide 3-[(2-phenyl-imidazo[1,2-a]pyridin-7-yl)-amide]], the concentration for half-maximal inhibition (IC50) was determined as 41.8 nM. Consider `Cn1ncc(C(=O)NC(CO)CO)c1C(=O)Nc1ccn2cc(-c3ccccc3)nc2c1` [Example 66, 2-Methyl-2H-pyrazole-3,4-dicarboxylic acid 4-[(2-hydroxy-1-hydroxymethyl-ethyl)-amide]3-[(2-phenyl-imidazo[1,2-a]pyridin-7-yl)-amide]], for which the half-maximal inhibitory concentration (IC50) came out at 2 nM. As for `Cn1ncc(C(=O)N2CCC2)c1C(=O)Nc1cc2nc(-c3ccccc3)cn2cc1Br` [Example 67, 4-(Azetidine-1-carbonyl)-2-methyl-2H-pyrazole-3-carboxylic acid (6-bromo-2-phenyl-imidazo[1,2-a]pyridin-7-yl)-amide], the IC50 was found to be 0.1 nM. `Cn1ncc(C(=O)N2CCOCC2)c1C(=O)Nc1cc2nc(-c3ccccc3)cn2cc1C#N` [Example 69, 2-Methyl-4-(morpholine-4-carbonyl)-2H-pyrazole-3-carboxylic acid (6-cyano-2-phenyl-imidazo[1,2-a]pyridin-7-yl)-amide]: the 50% inhibitory concentration (IC50) was determined as 1 nM. Take `Cn1ncc(C(=O)N2CCC2)c1C(=O)Nc1cc2nc(-c3ccccc3)cn2cc1Cl` [Example 70, 4-(Azetidine-1-carbonyl)-2-methyl-2H-pyrazole-3-carboxylic acid (6-chloro-2-phenyl-imidazo[1,2-a]pyridin-7-yl)-amide]: the IC50 worked out at 0.3 nM. Regarding `Cn1ncc(C(=O)N2CCOCC2)c1C(=O)Nc1cc2nc(-c3ccccc3)cn2cc1Cl` [Example 72, 2-Methyl-4-(morpholine-4-carbonyl)-2H-pyrazole-3-carboxylic acid (6-chloro-2-phenyl-imidazo[1,2-a]pyridin-7-yl)-amide], the half-inhibitory concentration (IC50) came out at 0.8 nM. In the case of `Cn1ncc(C(=O)N2CCC2)c1C(=O)Nc1cc2nc(-c3ccccc3)cn2cc1C1CC1` [Example 74, 4-(Azetidine-1-carbonyl)-2-methyl-2H-pyrazole-3-carboxylic acid (6-cyclopropyl-2-phenyl-imidazo[1,2-a]pyridin-7-yl)-amide], the IC50 was found to be 0.7 nM. On to `Cn1ncc(C(=O)N2CCOCC2)c1C(=O)Nc1cc2nc(-c3ccccc3)cn2cc1C1CC1` [Example 75, 2-Methyl-4-(morpholine-4-carbonyl)-2H-pyrazole-3-carboxylic acid (6-cyclopropyl-2-phenyl-imidazo[1,2-a]pyridin-7-yl)-amide], for which the half-inhibitory concentration (IC50) was found to be 1 nM.

In the case of `Cn1ncc(Cl)c1C(=O)Nc1cc2nc(-c3ccccc3)cn2cn1` [Example 80, 4-Chloro-2-methyl-2H-pyrazole-3-carboxylic acid (2-phenyl-imidazo[1,2-c]pyrimidin-7-yl)-amide], the IC50 came out at 7 nM. Regarding `CN(C)C(=O)c1cnn(C)c1C(=O)Nc1cc2nc(-c3ccccc3)cn2cn1` [Example 82, 2-Methyl-2H-pyrazole-3,4-dicarboxylic acid 4-dimethylamide 3-[(2-phenyl-imidazo[1,2-c]pyrimidin-7-yl)-amide]], the IC50 worked out at 0.1 nM. As for `CNC(=O)c1cnn(C)c1C(=O)Nc1cc2nc(-c3ccccc3)cn2cn1` [Example 84, 2-Methyl-2H-pyrazole-3,4-dicarboxylic acid 4-methylamide 3-[(2-phenyl-imidazo[1,2-c]pyrimidin-7-yl)-amide]], the IC50 is 2.7 nM.

Regarding `COCCCNC(=O)c1cnn(C)c1C(=O)Nc1cc2nc(-c3ccccc3)cn2cn1` [Example 85, 2-Methyl-2H-pyrazole-3,4-dicarboxylic acid 4-[(3-methoxy-propyl)-amide]3-[(2-phenyl-imidazo[1,2-c]pyrimidin-7-yl)-amide]], the IC50 is 0.6 nM. Under `Cn1ncc(C(=O)N2CCC2)c1C(=O)Nc1cc2nc(-c3ccccc3)cn2cn1` [Example 86, 4-(Azetidine-1-carbonyl)-2-methyl-2H-pyrazole-3-carboxylic acid (2-phenyl-imidazo[1,2-c]pyrimidin-7-yl)-amide] stands 0.3 nM; under `Cn1ncc(C(=O)N2CCOCC2)c1C(=O)Nc1cc2nc(-c3ccccc3)cn2cn1` [Example 89, 2-Methyl-4-(morpholine-4-carbonyl)-2H-pyrazole-3-carboxylic acid (2-phenyl-imidazo[1,2-c]pyrimidin-7-yl)-amide], 0.1 nM.
